Measured values as given in article PMC12703428, “Development of Granzyme A Turn‐ON Fluorescent Activity‐Based Probes” (Chembiochem, 2025).
Square brackets hold non-standard residues; d marks the D form. Ends that are not written are not given here. Oic = O=C(O)[C@@H]1C[C@@H]2CCCC[C@@H]2N1; Tic = O=C(O)[C@@H]1Cc2ccccc2CN1

How the values were obtained:
[1] = molecular target: T1, GzmA in lysate of NK‐92 cells (Homo sapiens, UniProt P12544); experiment: Labeling of GzmA in NK-92 cell lysate; assay type: biochemical; details: 1 mg/mL lysate, various probe concentrations, 1 h, 37 °C, in-gel fluorescence
T1 construct: host or cells: NK-92
T1 sequence (P12544 29-262): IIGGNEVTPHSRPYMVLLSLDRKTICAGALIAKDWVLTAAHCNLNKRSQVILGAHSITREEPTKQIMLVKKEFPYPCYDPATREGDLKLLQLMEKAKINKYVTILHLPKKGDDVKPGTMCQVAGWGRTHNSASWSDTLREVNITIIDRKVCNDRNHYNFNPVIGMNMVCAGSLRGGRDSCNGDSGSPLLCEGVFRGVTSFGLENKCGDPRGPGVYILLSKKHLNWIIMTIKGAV
Protocol: Figure 4 Characterization of qABPs in native proteomes. A) Labeling of GzmA by 5 and 6 in lysates of various cell lines (1 h, 37 °C). B) Stability of 5 and 6 in buffer and cell media (11 h, 37 °C). The hydrolysis of probes was measured by monitoring the production of Cy5 fluorescence signal over time. […] C) Labeling of GzmA by probes 3 –6 in NK‐92 cells (2 h, 37 °C). D) Flow cytometry analysis of protein labeling in NK‐92 cells by 3 –5. […] E) Flow cytometry analysis of concentration‐dependent GzmA labeling in NK‐92 cells and S/N of 5 (5 μM, 2 h, 37 °C). […]
Briefly, hGzmA (50 nM) was incubated with either inhibitor 1 or 2 (200 nM), and GzmA fluorogenic substrate […] (100 µM) in 50 mM Tris, 150 mM NaCl, 0.01% Triton X-100 (pH 8) for 15 hr at 37 °C. Recorded fluorescence at Ex/Em: 380/460 nm for residual GzmA […]
Cat. No. CRL-2570) and 4T1 (ATCC Cat. No. CRL-2539) cells were cultured in RPMI supplemented with 10% fetal bovine serum (FBS), 1% penicillin/streptomycin (PS), and 2 mM L-glutamine, while HEK293T and MDA-MB-231 cells (ATCC Cat. No. HTB-26) were cultured in DMEM supplemented likewise as described above. […] The supernatant was collected, and protein concentration was measured using a Pierce BCA protein assay. […]
C. In-gel fluorescence imaging […]

[2] = molecular target: T2, proteinase 3 (PR3) (Homo sapiens, UniProt P24158); experiment: Cross-reactivity labeling, proteinase 3; assay type: biochemical; details: protease 100 nM, probe 100 nM, 2 h, 37 °C, in-gel fluorescence
T2 sequence (P24158 28-256): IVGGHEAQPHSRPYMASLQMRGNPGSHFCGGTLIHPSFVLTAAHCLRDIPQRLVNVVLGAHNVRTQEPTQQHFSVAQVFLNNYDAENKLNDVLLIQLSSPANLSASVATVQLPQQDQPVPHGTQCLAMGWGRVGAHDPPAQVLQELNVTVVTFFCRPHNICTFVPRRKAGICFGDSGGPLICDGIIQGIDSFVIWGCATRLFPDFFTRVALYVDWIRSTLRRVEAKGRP
Protocol: Protease (100 nM) HNE PR3 GzmK GzmA
Protease (100 nM) GzmA GzmK
Supplementary Figure 2. Cross-reactivity of probes. (A) Labeling of GzmA, GzmK, PR3, and HNE
(100 nM, 2 h, 37 °C) by 100 nM of 5 and 6. (B) Labeling of GzmA and GzmK (100 nM, 2 h, 37 °C) by
100 nM of 3 – 6. (C) Concentration-dependent labeling of GzmA and GzmK (100 nM, 2 h, 37 °C) by 5 and
6. Protein samples were analyzed by SDS-PAGE and in-gel fluorescence scanning for Cy5 signal.
Protein loading was confirmed by SYPRO Ruby staining. […]

| Substance | Labeling of GzmA in NK-92 lysate [1] | Labeling of PR3 (cross-reactivity) [2] |
| --- | --- | --- |
| IGNR [compound 5] | selectively labeled GzmA in a concentration‐dependent manner at low nanomolar levels | Neither probe 5 nor 6 showed detectable labeling |
| [Tic]G[Oic]R [compound 6] | selectively labeled GzmA in a concentration‐dependent manner at low nanomolar levels | Neither probe 5 nor 6 showed detectable labeling |
